{
  "source": "paper PMC8960621",
  "about": "“Solution speciation and human serum protein binding of indium(III) complexes of 8-hydroxyquinoline, deferiprone and maltol” (Journal of Biological Inorganic Chemistry, 2022)",
  "key": {"[1]": {"biological_target": "T1, apoTf (Homo sapiens, UniProt P02787)", "T1 construct": "purchased Sigma-Aldrich T2036", "T1 sequence (P02787 20-698)": "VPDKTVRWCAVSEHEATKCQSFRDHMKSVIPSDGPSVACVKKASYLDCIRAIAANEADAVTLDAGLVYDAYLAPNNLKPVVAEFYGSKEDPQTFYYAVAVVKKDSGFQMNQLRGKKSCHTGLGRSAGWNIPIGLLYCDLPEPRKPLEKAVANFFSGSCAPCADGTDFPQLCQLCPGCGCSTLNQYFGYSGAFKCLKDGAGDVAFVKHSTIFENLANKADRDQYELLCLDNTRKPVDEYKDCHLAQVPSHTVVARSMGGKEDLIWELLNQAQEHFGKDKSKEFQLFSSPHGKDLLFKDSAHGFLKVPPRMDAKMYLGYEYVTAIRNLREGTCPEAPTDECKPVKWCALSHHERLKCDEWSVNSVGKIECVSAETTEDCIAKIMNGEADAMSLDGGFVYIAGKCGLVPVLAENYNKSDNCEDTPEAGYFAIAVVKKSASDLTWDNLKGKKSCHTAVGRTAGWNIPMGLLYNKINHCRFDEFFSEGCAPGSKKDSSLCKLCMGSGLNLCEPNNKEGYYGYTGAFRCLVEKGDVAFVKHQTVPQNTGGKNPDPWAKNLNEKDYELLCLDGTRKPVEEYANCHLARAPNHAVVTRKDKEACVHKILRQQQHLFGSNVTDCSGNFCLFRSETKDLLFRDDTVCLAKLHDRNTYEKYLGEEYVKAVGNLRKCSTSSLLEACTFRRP", "assay": "apoTf fluorescence quenching", "format": "binding", "settings": "λEM = 330 nm", "experimental": "Fluorescence quenching is a convenient technique to study the binding of metal ions at the iron-binding sites of apoTf since it results in reduced fluorescence intensity of Tf. Batch samples containing 1 μM apoTf and various amounts of In(III) compounds were prepared. […] The partial (and not complete) quenching of apoTf can be explained by the presence of numerous Tyr (26) and Trp (8) residues in the protein among which only a few are affected by the binding of In(III) at the iron-binding sites. Upon addition of InQ3, the quenching curve is more stretched and aims to lower intensities (Fig. 4b). Interaction of the non-dissociated complex InQ3 with apoTf cannot be excluded, the latter proposed interaction is realized via intermolecular binding mode and more likely takes place on site(s) other than the iron-binding pockets (vide infra).\nFluorescence studies were implemented by a Fluoromax (Horiba Jobin Yvon) fluorometer in 1 cm quartz cells. Samples contained 1 μM HSA or (apo)Tf and various protein-to-metal complex (or InCl3) ratios (up to complex/HSA = 1:30) were used. […] Intrinsic fluorescence of complex InQ3 was also followed at λEX = 367 nm, and λEM = 450 – 650 nm. In this setup, the complex concentration was ca. 10 or 20 μM, and protein (HSA, (apo)Tf) concentration was varied between 0 and 130 μM, and residual fluorescence of the proteins were subtracted if it was necessary. […]"}, "[2]": {"assay": "Interaction of tris-ligand complexes with low molecular mass serum components (phosphate, citrate, oxalate), UV-vis", "format": "physicochemical", "settings": "tenfold excess of the LMM ligands (phosphate, citrate, oxalate), pH 7.4", "from_the_text": "As a first step, interaction of the tris-ligand In(III) complexes with various LMM blood serum components was investigated and compared to that of GaQ3 studied formerly in our research group. The LMM compounds are considered to be more mobile than the high molecular mass components (HMM) such as proteins, and generally their reaction is characterized by faster kinetics. The role of serum compounds might have importance on the distribution of the In(III) complexes since they may be responsible for (partial) displacement of the originally coordinated ligand and they can also form mixed-ligand complexes. The complexes of In(III) and Ga(III) formed with HQ (InQ3, GaQ3), deferiprone (InD3) and maltol (InM3) were prepared in an aqueous solution by mixing the respective ligand and the metal ion in 3:1 ratio. […] All the measurements in this work were performed at 25 °C as most of the stability constants used for the modeling calculations published in the literature were determined at this temperature. UV–vis spectra recorded for the tris-ligand complexes at 10 μM concentration (see Fig. S1a for InQ3) in this buffer show 94%, 90% and < 20% non-dissociated InQ3, InD3 and InM3, respectively, which corresponds well to the fractions obtained using the stability constants determined at 0.20 M KCl: 90% (InQ3), 86% (InD3) and 9% InM3 and 6% InM^2+. […]"}, "[3]": {"biological_target": "T1, apoTf", "assay": "Fluorescence lifetime (TCSPC) of InQ3 in the presence of apoTf", "format": "binding", "settings": "in the presence of 0.1 – 0.3 equiv. apoTf, after 1 min waiting time", "experimental": "Therefore, UV–vis and fluorescence emission spectra of InQ3 were recorded in the presence of increasing amounts of apoTf (Fig. 5a, b). After a short initial phase, the absorbance band of InQ3 is reduced gradually by the addition of the protein, while the development of the new band at lower wavelengths (at ca. 310 nm) refers to the liberation of HQ. Namely, there is a competition for In(III) ion between the ligand and the iron-binding sites of apoTf. Absorbance values depicted at 370 nm and 310 nm (Fig. 5c) saturate roughly to the corresponding values of the free ligand and outline a sigmoidal shape. Fluorescence intensity of the same sample set (Fig. 5b, d) was enhanced and moderately blue shifted (from λmax = 540 nm to 532 nm) until the addition of ca. 0.2 equiv. apoTf. […] Then, by the addition of more apoTf, intensities decreased and λmax shifted further to shorter wavelengths (527 nm). […] This is further supported by fluorescence lifetime measurements; where new lifetime components τ3 = 4.7 ± 0.2 ns and τ4 = 13.8 ± 0.4 ns appeared for InQ3 in the presence of 0.1 – 0.3 equiv. apoTf (after 1 min waiting time). […] Here, the sigmoid shape of the UV–vis absorbance was seen again (Fig. S5) and the shifted inflection point in comparison to the titration with apoTf underlines the lower In(III) binding capacity of Tf. […]"}, "[4]": {"biological_target": "T2, human serum albumin (HSA) (Homo sapiens, UniProt P02768)", "T2 construct": "purchased Sigma-Aldrich A8763", "T2 sequence (P02768 25-609)": "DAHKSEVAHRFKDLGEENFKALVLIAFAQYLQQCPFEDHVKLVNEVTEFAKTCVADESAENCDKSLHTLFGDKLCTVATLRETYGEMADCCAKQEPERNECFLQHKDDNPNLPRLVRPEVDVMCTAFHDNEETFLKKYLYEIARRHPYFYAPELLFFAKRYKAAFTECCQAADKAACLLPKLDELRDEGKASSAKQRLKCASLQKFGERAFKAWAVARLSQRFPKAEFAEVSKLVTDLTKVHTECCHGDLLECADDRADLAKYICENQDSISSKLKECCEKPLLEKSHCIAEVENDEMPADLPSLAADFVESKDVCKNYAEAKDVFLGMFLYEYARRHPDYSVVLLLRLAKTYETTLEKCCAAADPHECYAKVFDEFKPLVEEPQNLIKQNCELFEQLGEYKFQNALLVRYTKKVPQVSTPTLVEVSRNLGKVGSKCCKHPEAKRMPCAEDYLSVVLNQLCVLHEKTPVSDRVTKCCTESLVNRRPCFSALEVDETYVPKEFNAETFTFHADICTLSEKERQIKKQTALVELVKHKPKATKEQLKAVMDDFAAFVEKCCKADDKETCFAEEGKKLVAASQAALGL", "design": "method as in PMID 25398250", "settings": "cited from earlier work"}, "[5]": {"design": "method as in PMID 25398250", "settings": "same LMM competitors in tenfold excess, investigated separately; cited from earlier work"}},
  "data": [
    {"smiles": "Cc1c([O-])c(=O)ccn1C.Cc1c([O-])c(=O)ccn1C.Cc1c([O-])c(=O)ccn1C.[In+3]", "note": "[InD3]", "values": [
      {"measurement": "apoTf emission stabilized at % of the initial intensity", "setting": "[1]; 1 μM apoTf, λEX = 280 nm, pH 7.40", "result": "ca. 83%"},
      {"measurement": "breakpoint of the quenching curve, complex-to-Tf ratio", "setting": "[1]", "result": "ca. 2"}
    ]},
    {"smiles": "[In+3].[O-]c1cccc2cccnc12.[O-]c1cccc2cccnc12.[O-]c1cccc2cccnc12", "note": "[InQ3, Tris(8-Quinolinolato)indium(III)]", "values": [
      {"measurement": "complex remained", "setting": "[2]", "result": "ca. 34%"},
      {"measurement": "τ3", "setting": "[3]", "result": "4.7 ± 0.2", "unit": "ns"},
      {"measurement": "τ4", "setting": "[3]", "result": "13.8 ± 0.4", "unit": "ns"}
    ]},
    {"smiles": "[Ga+3].[O-]c1cccc2cccnc12.[O-]c1cccc2cccnc12.[O-]c1cccc2cccnc12", "note": "[GaQ3, Tris(8-Quinolinolato)gallium(III), reference compound]", "values": [
      {"measurement": "logK’ (HSA binding constant)", "setting": "[4]", "result": 4.04},
      {"measurement": "effect of LMM competitors on the complex", "setting": "[5]", "result": "practically not affected"}
    ]}
  ]
}
